From article PMC6562704, “Antihypertensive Effect in Vivo of QAGLSPVR and Its Transepithelial Transport Through the Caco-2 Cell Monolayer” (Marine Drugs, 2019)
One block for each substance: values may come before it. Ends that are not written are not given here.

Experiments:
[1] = test system: SHRs; conditions: cited from earlier work
Source text: Bioactive peptides are exposed through systemic circulation in human tissues. Unfortunately, bioactive peptides may be hydrolyzed before they reach the target tissues during passage through and absorption by the small intestine. […] For example, FKGRYYP was identified from ch ...

[2] = target: angiotensin-I-converting enzyme (ACE); conditions: in vitro; read-out: IC50 for ACEI activity in vitro; cited from earlier work
Source text: In our previous studies, enzymatic hydrolysates of tilapia skin gelatin were obtained using simulated gastrointestinal digestion. The hydrolysates were isolated and purified, and QAGLSPVR was obtained by successive chromatography of the gelatin hydrolysates. […] The present study aims to confirm the in vivo antihypertensive effect of QAGLSPVR by using the SHR model. […] Bioactive peptides are exposed through systemic circulation in human tissues. Unfortunately, bioactive peptides may be hydrolyzed before they reach the target tissues during passage through and absorption by the small intestine. […] For example, FKGRYYP was identified from ch ...

[3] = test system: Caco-2 cell monolayer; assay: Transepithelial transport through the Caco-2 cell monolayer; assay type: in vitro ADME, human
Procedure: Caco-2 cells (1 × 10^5 cells/well) were routinely cultured in Dublecco’s modified Eagle’s medium with 15% FBS, […] streptomycin and 100 U/mL penicillin. Caco-2 cell monolayer was cultured in six-well Transwell plastic plates in a humidified incubator with 5% CO2 at 37 °C and Caco-2 cell monolayer can be used to perform transport experiments when the transepithelial resistance is higher than 400 Ω/cm^2 [29]. The Caco-2 cell culture medium was substituted with Hank’s balanced salt solution (HBSS) buffer (preheated at 37 °C for 30 min) prior to the transport experiment. The cell monolayer was cultured in HBSS buffer and maintained at 37 °C for 2 h. QAGLSPVR (2 mg/mL, 1.5 mL, dissolved in HBSS) was added to the AP of the cell monolayer, while HBSS buffer (2.5 mL) was added to the BL. The Caco-2 cell monolayer was cultured for 0.5, 1, or 2 h in an incubator at 37 °C. The AP and BL fractions were collected at different times. QAGLSPVR concentrations in the BL were detected by UPLC-Q-Orbitrap-MS^2 analysis according to our previous method, and the transport percentages of QAGLSPVR at different times were calculated.
The transport patterns of QAGLSPVR through the Caco-2 cell monolayer were studied using different transport inhibitors and enhancers. In brief, Gly-Sar, wortmannin, and cytochalasin D were dissolved in DMSO (final concentration of DMSO in HBSS = 0.05%) and final concentrations of25 mM, 500 nM, and 0.5 μg/mL, respectively. The Caco-2 cell monolayer was pre-incubated with Gly-Sar (a peptide transporter PepT1 substrate), wortmannin (atranscytosis inhibitor), or cytochalasin D (a TJ disruptor)for 30 min followed by addition of 1.5 mL of 2 mg/mL QAGLSPVR to the AP and 2.5 mL of fresh HBSS to the BL. After 2 h of incubation, the QAGLSPVR content in the BL was determined via UPLC-Q-Orbitrap-MS^2 analysis according to our previous method, and transport percentages were calculated.

[4] = test system: Caco-2 cell monolayer; conditions: cited from earlier work
Procedure: QAGLSPVR was proven to produce a clear antihypertensive effect on SHRs in this study. To validate whether QAGLSPVR could be completely absorbed to regulate blood pressure, the transport percentage of QAGLSPVR was evaluated via the Caco-2 cell monolayer model. Caco-2 cells can be used as an in vitro model of the human intestinal epithelium due to the various brush border membrane enzymes characterizing these cells. At least eight membrane enzymes are expressed by Caco-2 cells. The brush border membrane enzymes are membrane peptidases and can hydrolyze peptides into short fragments prior ...

Substance: FKGRYYP [peptide identified from chicken muscle hydrolysates]
antihypertensive activity after oral administration to SHRs (in words) [1]: no antihypertensive activity
IC50 [2]: 550 µM

effect of cytochalasin D on QAGLSPVR transport (in words) ([3]; Caco-2, AP to BL, 30 min pre-incubation with 0.5 μg/mL cytochalasin D (TJ disruptor), 2 mg/mL peptide, HBSS, 2 h, UPLC-Q-Orbitrap-MS^2, p < 0.05): significantly increased
effect of wortmannin on QAGLSPVR transport (in words) ([3]; Caco-2, AP to BL, 30 min pre-incubation with 500 nM wortmannin (transcytosis inhibitor), 2 mg/mL peptide, HBSS, 2 h, UPLC-Q-Orbitrap-MS^2, p > 0.05): did not significantly affect
effect of Gly-Sar on QAGLSPVR transport (in words) ([3]; Caco-2, AP to BL, 30 min pre-incubation with 25 mM Gly-Sar (PepT1 substrate), 2 mg/mL peptide, HBSS, 2 h, UPLC-Q-Orbitrap-MS^2, p > 0.05): no significant effect
integrity on transport through the Caco-2 cell monolayer (in words) ([3]; Caco-2 monolayer, AP to BL, HBSS, 2 mg/mL, 37 °C, 0.5-2 h, UPLC-Q-Orbitrap-MS^2): transported intact
transport percentage ([3]; Caco-2 monolayer, AP to BL, six-well Transwell, transepithelial resistance > 400 Ω/cm^2, HBSS, 2 mg/mL peptide (1.5 mL) in AP, 2.5 mL HBSS in BL, 37 °C, 2 h, UPLC-Q-Orbitrap-MS^2, mean ± SD): 3.5%
Substance: QAGLSPVR [QAGLSPVR]

Substance: QIGLF
absorption through the Caco-2 cell monolayer (in words) [4]: absorbed intact

Substance: RKQLQGVN
absorption through the Caco-2 cell monolayer (in words) [4]: absorbed intact

Substance: TNGIIR
absorption through the Caco-2 cell monolayer (in words) [4]: absorbed intact

Substance: YLGYLEQ
absorption through the Caco-2 cell monolayer (in words) [4]: absorbed intact
